The text below walks through data of patent US7148231B2, “[6,7-Bis(2-methoxy-ethoxy)-quinazolin-4-yl]-(3-ethynyl-phenyl)amine hydrochloride polymorph” (Hoffmann-La Roche Inc., priority 2003, dated 2006).

Data set [1] is described as follows: Solubility after 20 min equilibration at 20° C. The class given is physicochemical. Particulars: hydrochloride; for solubility in aqueous buffer (pH 1): aqueous buffer solution pH 1, 20 min equilibration at 20° C.; for solubility in water: 20 min equilibration at 20° C. As to the method:
The solubility of polymorphs A, B, and E measured after 20 min equilibration at 20° C. in either water or aqueous buffer solution (pH 1) are compiled the following table.: […]

The conditions of data set [2]: polymorphs described in WO 01/34574; cited from earlier work.
The conditions of data set [3]: polymorphs described in WO 01/34574; cited from earlier work. The source holds these as a separate data set.
A short description of data set [4]: Thermodynamic stability (melting point, heat of solution, equilibration experiments in suspension). The class given is physicochemical. Particulars: comparison of polymorphs E, A and B; hydrochloride. As to the method: The thermodynamic stability of the individual crystalline polymorphs E, A and B of [6,7-Bis(2-methoxy-ethoxy)-quinazolin-4-yl]-(3-ethynyl-phenyl)amine hydrochloride were measured according to methods known in the art, e.g., from Byrn (Byrn, S. R., Pfeiffer, R. R., Stowell, J. G., “Solid-State Chemistry of Drugs”, SSCI Inc., West Lafayette, Ind., 1999).

For data set [5] the following is noted: polymorphs described in WO 01/34574; cited from earlier work. This is another data set of the same source.
The next data set can be described thus: Dissolution rate. The class given is physicochemical. Particulars: compared with polymorph B.

Like-named read-outs stand apart in the source and are kept apart here.

For `C#Cc1cccc(Nc2ncnc3cc(OCCOC)c(OCCOC)cc23)c1.Cl` [polymorph A, [6,7-Bis(2-methoxy-ethoxy)-quinazolin-4-yl]-(3-ethynyl-phenyl)amine hydrochloride], in data set [1], the “solubility in aqueous buffer (pH 1)” value amounted to 0.017% and the solubility in water came out at 0.194%. In addition, the dissolution rate entry in data set [2] is “better solubility and dissolution rate than polymorph B”. Also, the solubility entry in data set [3] was “better solubility and dissolution rate than polymorph B”.

Turning to `C#Cc1cccc(Nc2ncnc3cc(OCCOC)c(OCCOC)cc23)c1.Cl` [polymorph B, [6,7-Bis(2-methoxy-ethoxy)-quinazolin-4-yl]-(3-ethynyl-phenyl)amine hydrochloride], the thermodynamic stability entry in data set [4] is “more stable than polymorphs E and A”. In addition, in data set [1], the “solubility in aqueous buffer (pH 1)” value turned out to be 0.003% and the solubility in water is listed as 0.098%. In addition, in data set [5], the thermodynamic stability entry is on record as “thermodynamically more stable than polymorph A”.

On to `C#Cc1cccc(Nc2ncnc3cc(OCCOC)c(OCCOC)cc23)c1.Cl` [polymorph E, [6,7-Bis(2-methoxy-ethoxy)-quinazolin-4-yl]-(3-ethynyl-phenyl)amine hydrochloride], for which, in data set [4], the thermodynamic stability entry is listed as “thermodynamically more stable than polymorph A”. Moreover, in data set [1], the “solubility in aqueous buffer (pH 1)” value came out at 0.011% and the solubility in water amounted to 0.191%. For the same molecule, the dissolution rate result in “Dissolution rate” is “better solubility and dissolution rate than the known polymorph B”.
